Reference: PMC10406626, “Structural displacement model of chitooligosaccharide transport through chitoporin” (The Journal of Biological Chemistry, 2023)
“And” between values parts separate entries of the source, which are not always exact repeats. Equal values may be shown once. Read-outs that look alike come from different tables or passages of the source.

Columns and labels:
WT VhChiP [1] = molecular target: T1, WT VhChiP (Vibrio campbellii, UniProt L0RVU0); experiment: Single-channel BLM recordings, chitohexaose titration of WT VhChiP; assay type: binding; details: no N-plug peptide
T1 sequence (L0RVU0 26-375): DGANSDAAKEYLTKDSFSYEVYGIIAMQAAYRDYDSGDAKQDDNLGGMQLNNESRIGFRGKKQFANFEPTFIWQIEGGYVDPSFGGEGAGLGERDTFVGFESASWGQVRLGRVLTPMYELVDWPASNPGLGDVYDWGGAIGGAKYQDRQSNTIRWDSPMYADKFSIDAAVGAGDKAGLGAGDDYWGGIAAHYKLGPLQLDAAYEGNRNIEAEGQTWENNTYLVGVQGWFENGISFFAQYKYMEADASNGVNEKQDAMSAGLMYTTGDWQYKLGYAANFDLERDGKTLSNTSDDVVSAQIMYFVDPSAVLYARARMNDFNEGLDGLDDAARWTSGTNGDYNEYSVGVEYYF
Description: (§1) Single-channel analysis using the BLM reconstitution technique was performed as described previously ([13], [34], [35]). The lipid bilayer cuvette consisted of a 25-μm thick Teflon film sandwiched between two chambers. […] The chambers were filled with electrolyte solution and Ag/AgCl electrodes immersed on either side of the Teflon film. The electrolyte used was 1 M KCl buffered with 20 mM Hepes, pH 7.4. 1,2-diphytanoyl-sn-glycero-3-phosphatidylcholine (Avanti Polar Lipids) was used for lipid bilayer formation. To form the bilayer, the aperture was first prepainted with 1 μl of 1% (v/v) hexadecane in pentane (Sigma-Aldrich). One of the electrodes was used as the ground (cis), while the other electrode (trans) was connected to the head-stage of an Axopatch 200B amplifier (Axon Instruments). VhChiP (20–100 ng μL^−1) was added to the solution on the cis side of the lipid membrane. At applied transmembrane potentials of ±100 mV, a single channel was frequently inserted within a few minutes. The protein solution in the chamber was then gently diluted by multiple additions of the working electrolyte, to prevent multiple insertions. Single-channel current measurements were performed in the voltage-clamp mode, with the internal filter set at 10 kHz. Amplitude, probability, and single-channel analyses were performed using pClamp v.10.5 software (https://www.moleculardevices.com/products/axon-patch-clamp-system/acquisition-and-analysis-software/pclamp-software-suite) (all from Molecular Devices). To investigate sugar translocation, chitooligosaccharide was added to the cis side of the chamber at a final concentration of 5 μM. Occlusions of ion flow caused by sugar diffusion through the inserting channel were usually recorded for 2 min. To determine the kinetics of sugar translocation on individual subunit blockages, discrete concentrations of chitohexaose (0, 0.25, 0.5, and 1.0 μM) was tested. To study channel blocking behaviors of the N-plug, the first nine amino acids (Asp^1-Lys^9) (the so-called N-plug peptide) that plugged the channel was synthesized (GenScript). Two concentrations of the peptide (10 and 40 μM) were added to either the cis or the trans side of the chamber, containing with or without 1 μM of chitohexaose on the cis side.
(§2) The equilibrium binding constant K (M^-1) was estimated from the decrease in the ion conductance in the presence of increasing concentrations of sugar using the following equation ([36]):(1) Gmax−Gc/Gmax=Imax−Ic/Imax=K[C]/(K[C]+1)
(§3) Gmax is the average conductance of the fully open VhChiP channel, and Gc is the average conductance at a given concentration [c] of chitohexaose. Imax is the initial current through the fully open channel in the absence of sugar, and Ic is the current at a particular sugar concentration. The titration experiments were also analyzed using double reciprocal plots.

truncated VhChiP [2] = molecular target: T2, truncated VhChiP (Vibrio campbellii, UniProt L0RVU0); experiment: Single-channel BLM recordings, chitohexaose titration of truncated VhChiP (without or with N-plug peptide); assay type: binding; details: for K (equilibrium binding constant) / koff / kon: truncated
Description: as §1, with “To investigate sugar translocation, chitooligosaccharide was added to the cis side of the chamber at a final concentration of 5 μM.” left out
as §2, §3

VhChiP D1A mutant [3] = molecular target: T3, VhChiP D1A mutant (Vibrio campbellii, UniProt L0RVU0, D26A); experiment: Single-channel BLM recordings, chitohexaose titration of D1A mutant; assay type: binding; details: sugar on cis side
T3 sequence (L0RVU0 26-375 D26A): T1 sequence (L0RVU0 26-375)
Description: Single-channel analysis using the BLM reconstitution technique was performed as described previously ([13], [34], [35]). The lipid bilayer cuvette consisted of a 25-μm thick Teflon film sandwiched between two chambers. […] The chambers were filled with electrolyte solution and Ag/AgCl electrodes immersed on either side of the Teflon film. The electrolyte used was 1 M KCl buffered with 20 mM Hepes, pH 7.4. 1,2-diphytanoyl-sn-glycero-3-phosphatidylcholine (Avanti Polar Lipids) was used for lipid bilayer formation. To form the bilayer, the aperture was first prepainted with 1 μl of 1% (v/v) hexadecane in pentane (Sigma-Aldrich). One of the electrodes was used as the ground (cis), while the other electrode (trans) was connected to the head-stage of an Axopatch 200B amplifier (Axon Instruments). VhChiP (20–100 ng μL^−1) was added to the solution on the cis side of the lipid membrane. At applied transmembrane potentials of ±100 mV, a single channel was frequently inserted within a few minutes. […] Occlusions of ion flow caused by sugar diffusion through the inserting channel were usually recorded for 2 min. […]
Gmax is the average conductance of the fully open VhChiP channel, and Gc is the average conductance at a given concentration [c] of chitohexaose. […] The titration experiments were also analyzed using double reciprocal plots.

WT VhChiP [4] = molecular target: T1, WT VhChiP; experiment: ITC, chitohexaose into WT VhChiP; assay type: binding; details: 25 °C
Description: (§4) ITC experiments were carried out at least three times using the MicroCal PEAQ-ITC (Malvern Instruments Ltd) at 25 ± 1 °C with a stirring speed of 500 rpm. For titration experiments, 40 μl of chitohexaose or the N-plug was titrated from a syringe into the 300 μl-calorimeter cells containing 0.05% (v/v) LDAO, 20 mM sodium phosphate buffer, pH 7.5, and protein solution. Injections (2 μl per injection) were repeated 19 times over 150-s intervals. The background was measured by injecting the corresponding ligand into the cell containing only the buffer. The ITC data were collected and analyzed using the MicroCal PEAQ-ITC analysis software (https://www.malvernpanalytical.com/en/support/product-support/software/microcal-peaq-itc-analysis-software-v141). The ITC profile obtained by injecting the corresponding ligand into the reaction cell containing buffer without VhChiP was subtracted from the […] dataset. The resultant data were fitted by a single-site binding model with the nonlinear least square algorithm.

truncated VhChiP [5] = molecular target: T2, truncated VhChiP; experiment: ITC, chitohexaose into truncated VhChiP; assay type: binding; details: 25 °C
Description: as §4

[6] = molecular target: truncated VhChiP mixed with the N-plug peptide (Vibrio campbellii, UniProt L0RVU0); experiment: ITC, chitohexaose into truncated VhChiP mixed with N-plug peptide; assay type: binding; details: 25 °C, protein 20 μM, N-plug 5 μM
Description: as §4

N-plug peptide = N-plug peptide (Vibrio campbellii, UniProt L0RVU0); experiment: ITC, chitohexaose into synthesized N-plug peptide; assay type: binding; details: 25 °C
Description: as §4

VhChiP D1A mutant [7] = molecular target: T3, VhChiP D1A mutant; experiment: ITC, chitohexaose into D1A mutant; assay type: binding; details: 25 °C
Description: as §4

EcChiP [8] = experiment: Literature single-channel analysis, EcChiP; assay type: binding, E. coli; details: same sugar
EcChiP [9] = test system: EcChiP; set-up: method as in PMID 27226611, PMID 28972167; details: single-channel analysis; cited from earlier work
ScrY = test system: ScrY; set-up: method as in PMID 9691119; details: cited from earlier work
[10] = molecular target: N-terminally truncated VhChiP (lacking the N-plug) (Vibrio campbellii (formerly Vibrio harveyi) ATCC BAA-1116); experiment: crystal structure; truncated VhChiP, ligand-free (C121, a single trimer per asymmetric unit) and cocrystallised with chitohexaose (P1, two trimers per asymmetric unit)
CymA = test system: CymA; set-up: method as in PMID 10455198; details: cited from earlier work
maltoporin (LamB) = test system: maltoporin (LamB); set-up: method as in PMID 11415317; details: cited from earlier work
[11] = sugar on cis side, N-plug peptide on trans side
[12] = sugar on cis side, no N-plug peptide
[13] = sugar on trans side, no N-plug peptide

Compound: CC(=O)NC1C(O)OC(CO)C(OC2OC(CO)C(OC3OC(CO)C(OC4OC(CO)C(OC5OC(CO)C(OC6OC(CO)C(O)C(O)C6NC(C)=O)C(O)C5NC(C)=O)C(O)C4NC(C)=O)C(O)C3NC(C)=O)C(O)C2NC(C)=O)C1O (stereo not drawn) [chitohexaose]
- K (equilibrium binding constant) (WT VhChiP [1]; WT, sugar on cis side): 250,000 M^−1
- koff (WT VhChiP [1]; WT, sugar on cis side): 270 ± 400 s⁻¹
- τc (average residence time) (WT VhChiP [1]; WT, sugar on cis side): 3.7 ± 0.3 ms and 3.7 ± 0.4 ms
- kon (WT VhChiP [1]; WT, sugar on cis side, 1 M KCl, 20 mM Hepes pH 7.4, +100 mV): 68 ± 1.4 × 10^6 M^−1s^−1
- K (equilibrium binding constant) (WT VhChiP [1]; WT, sugar on trans side): 240,000 M^−1
- koff (WT VhChiP [1]; WT, sugar on trans side, read-out: koff): 210 ± 500 s⁻¹
- kon (WT VhChiP [1]; WT, sugar on trans side, read-out: kon): 5e+07 ± 1.2e+06 M⁻¹ s⁻¹
- kon (WT VhChiP [1]; pH 7.4, WT, sugar on cis side, 1 M KCl, 20 mM Hepes pH 7.4, +100 mV): 5.6e+07 ± 1e+07 M⁻¹ s⁻¹
- reduction in the binding affinity, truncated vs WT (truncated VhChiP [2]; from Table 2): 22.3 fold
- K (equilibrium binding constant) (truncated VhChiP [2]; sugar on cis side, N-plug peptide on cis side): incalculable
- K (equilibrium binding constant) (truncated VhChiP [2]; [11]): 255,000 M^−1
- koff (truncated VhChiP [2]; [11]): 220 ± 10 s⁻¹
- kon (truncated VhChiP [2]; [11]): 5.6e+07 ± 100000 M⁻¹ s⁻¹
- K (equilibrium binding constant) (truncated VhChiP [2]; [12]): 11,000 M^−1
- koff (truncated VhChiP [2]; [12]): 500 ± 100 s⁻¹
- K (equilibrium binding constant) (truncated VhChiP [2]; [13]): 23,000 M^−1
- koff (truncated VhChiP [2]; [13]): 300 ± 100 s⁻¹
- kon (truncated VhChiP [2]; [13]): 6.8e+06 ± 500000 M⁻¹ s⁻¹
- K of D1A mutant less than WT channel (VhChiP D1A mutant [3]): 2.5 fold
- n (site), stoichiometry (WT VhChiP [4]): 3.2 ± 0.1
- Kd (WT VhChiP [4]; one-site binding fit): 0.3 ± 0.06 µM
- n (site), stoichiometry (truncated VhChiP [5]): 2.8 ± 0.1
- Kd (truncated VhChiP [5]; one-site binding fit): 10 ± 0.3 µM
- Kd [6]: 2.9 ± 0.07 µM
- n (site), stoichiometry [6]: 2.3 ± 0.2
- Kd (N-plug peptide; N-plug 500 μM, no protein): 2600 ± 120 µM
- n (site), stoichiometry (N-plug peptide; N-plug peptide alone): 1.0 ± 0.02
- Kd (VhChiP D1A mutant [7]): 1.2 ± 0.2 µM
- n (site), stoichiometry (VhChiP D1A mutant [7]): 3.0 ± 0.1
- K of EcChiP less than that of VhChiP (EcChiP [8]): about 10 fold
- K value (EcChiP [9]): 50,000 M^−1

Compound: OC[C@H]1O[C@@](CO)(O[C@H]2O[C@H](CO)[C@@H](O)[C@H](O)[C@H]2O)[C@@H](O)[C@@H]1O [sucrose]
- binding constant (K) (ScrY): 80 M⁻¹

Compound: N-plug peptide: synthesized peptide corresponding to the first nine residues (DGANSDAAK, Asp1-Lys9) of VhChiP
- channel blocking events (truncated VhChiP [2]; truncated channel, no sugar, peptide at 10 and 40 μM on trans side, +100 mV, 1 M KCl, 20 mM Hepes pH 7.4): rare and short-lived blocking events

Compound: N-terminally truncated VhChiP (lacking the N-plug) (domain or fragment)
- stoichiometry N [10]: 3

Compound: cyclodextrin
- binding constant (K) (CymA): 31,300 M^−1

Compound: maltohexaose
- binding constant (K) (maltoporin (LamB)): 13,600 M^−1
